According to PMC4434909, “In vitro properties of designed antimicrobial peptides that exhibit potent antipneumococcal activity and produces synergism in combination with penicillin” (Scientific Reports, 2015):
Like-named read-outs stand apart in the source and are kept apart here. Where no end group is shown, it is not given here.

Columns and labels:
[1] = system: A. baumanii ATCC 15308; type: cell-based, Acinetobacter baumanii
Text: (§1) All bacterial strains were obtained from Department of Medical Microbiology, University of Malaya. Clinical isolates were previously obtained from University of Malaya Medical Centre and maintained in the laboratory. Sheep blood agar was used for pneumococcal cultivation purpose. Nutrient agar was used for cultivating E. coli ATCC 25922, S. aureus ATCC 25923, and P. aeruginosa ATCC 15442, Acinetobacter baumanii ATCC 15308, and one clinical isolate for each MRSA, E. cloacae, Citrobacter spp., and K. pneumoniae. For antimicrobial testing, Mueller-Hinton agar (MHA) and cationically-adjusted MHB (CAMHB) were prepared according to the Clinical and Laboratory Standard Institute guidelines. MHA for S. pneumoniae was supplemented with 5% (v/v) defibrinated sheep blood and 5% laked horse blood for CAMHB. All bacterial cultures were stored in multiple vials in brain heart infusion broth supplemented with 10% (v/v) glycerol at −80°C to avoid repeated freeze-thawed cycles on the cells. All freeze-stocked strains were passaged twice prior to experimentation.
(§2) Procedures were performed to determine the MIC of peptides according to the CLSI guidelines[21] against 60 pneumococcal isolates which consisted of 20 isolates each for PRSP, PISP, and PSSP. Strains were grown for 18–24 hrs at 37°C under 5% CO2. Direct suspension of the colonies were made in CAMHB and adjusted to OD625 0.08–0.1 which corresponds to 1 ~ 2 × 10^8 CFU/ml followed by serial ten-fold dilutions to give 1 × 10^6 CFU/ml. Fifty microliters of bacterial suspension was then aliquoted to 96-well round bottom microtiter plates containing equal volume of serially diluted peptides to give final concentrations of peptides encompassing the range of 1.96–250 μg/ml. […] The plates were incubated for 18–24 hrs at 37°C under 5% CO2. MIC was read as the concentration of peptide producing complete inhibition on the visible growth of the test organism. Results were pooled from three independent experiments. MIC range was defined as the range of concentrations where the peptides produce detectable antimicrobial activity. Effective percentage (EP) was the proportion of pneumococcal isolates inhibited within the MIC range. Since the isolates tested were obtained prior to 2008 where major revision in antibiotic susceptibility breakpoints were introduced, thus the pneumococci were defined according to the PEN susceptibility breakpoint (prior 2008) which corresponds to the PEN (oral penicillin V) breakpoint of the revised criteria.
The broad spectrum antibacterial activity of the peptides against a panel of eight clinically important bacteria was also determined, this includes S. aureus ATCC 25923, E. coli ATCC 25922, P. aeruginosa ATCC 15442, A. baumanii ATCC 15308, and one clinical isolate each for MRSA, E. cloacae, Citrobacter spp., and K. pneumoniae.

[2] = system: penicillin-resistant Streptococcus pneumoniae (PRSP); type: cell-based; settings: for MIC, PRSP: MIC range over 20 PRSP isolates, CLSI broth microdilution, CAMHB with 5% laked horse blood, 18–24 hrs 37°C 5% CO2, peptides 1.96–250 μg/ml, three independent experiments; for EP %, PRSP: effective percentage: proportion of isolates inhibited within the MIC range
Text: as §1, §2

[3] = system: NL20 cell line; assay: Cytotoxicity against human cell lines (CellTiter 96 AQueous); type: cell-based
Method: (§3) Both the NL20 human lung bronchial normal epithelial cell line and the A549 human lung alveolar adenocarcinoma epithelial cell line were used for cell cytotoxicity tests. Besides investigating the cytotoxicity of peptides, differences in cell viability between the two cell lines can be used to evaluate the cell line selectivity and to assess potential anticancer potential of the peptides. NL20 cell line was grown in Ham's F12 medium and A549 cell line was grown in Roswell Park Memorial Institute medium. Both media were supplemented with fetal bovine serum to 10% (v/v) as growth medium or 2% (v/v) as maintenance medium in cell cytotoxicity testing. The assay was performed as described by Lee et al.[26]. NL20 cells was seeded overnight at 3 × 10^4 cells/well in 96-well cell culture-treated flat bottom microtiter plate and treated with serial dilutions of peptide at a final concentration of 1.95–250 μg/ml. PEN was tested from 0.03–4 μg/ml, the same range used to classify the susceptibility of pneumococcal isolates in this study. Test using A549 cells followed the same procedures with 1 × 10^4 cells/well. Plates were incubated at 37°C under 5% CO2 for 24, 48, and 72 hrs. Cell viability was detected by using CellTiter 96® AQueous Non-Radioactive Cell Proliferation assay (Promega, USA) and the colorimetric changes were read with Glomax multidetection system (Promega, USA) at OD 490 nm. Results were pooled from three independent experiments and expressed as mean ± SD. […] Imax was the percentage of cell viable treated with peptides/PEN at the maximum concentration as defined throughout this study (all peptides 250 μg/ml, PEN 4 μg/ml).

[4] = system: A549 cell line; assay: as above; type: cell-based
Method: as §3

[5] = Gram-negative, broth microdilution, CAMHB, peptides 1.96–250 μg/ml
[6] = concentration reducing cell viability to 50%, 24 hrs, 2% FBS medium, OD 490 nm, mean ± SD of three independent experiments
[7] = concentration reducing cell viability to 50%, 48 hrs, 2% FBS medium, OD 490 nm, mean ± SD of three independent experiments
[8] = concentration reducing cell viability to 50%, 72 hrs, 2% FBS medium, OD 490 nm, mean ± SD of three independent experiments
[9] = percentage cell viability at the highest concentration (peptides 250 μg/ml; PEN 4 μg/ml), 24 hrs, mean ± SD
[10] = percentage cell viability at the highest concentration (peptides 250 μg/ml; PEN 4 μg/ml), 48 hrs, mean ± SD
[11] = percentage cell viability at the highest concentration (peptides 250 μg/ml; PEN 4 μg/ml), 72 hrs, mean ± SD
[12] = bound stated in text for 24, 48 and 72 hrs together

Substance: GLFDIWKKWRWRR-NH2 [DM4]
- MIC, A. baumanii ATCC 15308 [1, 5]: 31.3 µg/mL
- MIC, PRSP [2]: 31.3 to 125 µg/mL
- EP %, PRSP [2]: (100.0) %
- IC50, NL20 cell line, 24 hrs [3, 6]: 160.2 ± 11.8 µg/mL
- IC50, NL20 cell line, 48 hrs [3, 7]: 167.3 ± 5.9 µg/mL
- IC50, NL20 cell line, 72 hrs [3, 8]: 205.0 ± 7.0 µg/mL
- IC50 of NL20 cells higher than A549 cells by, 24 hrs ([3]; difference IC50 NL20 minus IC50 A549, 24 hrs): 66.9 µg/mL
- IC50 of NL20 cells higher than A549 cells by, 48 hrs ([3]; difference IC50 NL20 minus IC50 A549, 48 hrs): 64.3 µg/mL
- IC50 of NL20 cells higher than A549 cells by, 72 hrs ([3]; difference IC50 NL20 minus IC50 A549, 72 hrs): 97.5 µg/mL
- Imax, NL20 cell line, 24 hrs [3, 9]: 6.9 ± 6.8%
- Imax, NL20 cell line, 48 hrs [3, 10]: 5.9 ± 2.5%
- Imax, NL20 cell line, 72 hrs [3, 11]: 30.2 ± 2.9%
- IC50, A549 cell line, 24 hrs [4, 6]: 93.3 ± 5.1 µg/mL
- IC50, A549 cell line, 48 hrs [4, 7]: 103.0 ± 17.5 µg/mL
- IC50, A549 cell line, 72 hrs [4, 8]: 107.5 ± 16.3 µg/mL
- Imax, A549 cell line, 24 hrs [4, 9]: 8.5 ± 3.8%
- Imax, A549 cell line, 48 hrs [4, 10]: 8.9 ± 1.4%

Substance: GLFDIWAWWRWRR-NH2 [DM2]
- MIC, A. baumanii ATCC 15308 ([1]; ATCC 15308): 31.3 µg/mL
- MIC, PRSP [2]: 15.63 to 250 µg/mL
- EP %, PRSP [2]: (100.0) %
- difference between lowest and highest detectable MIC against S. pneumoniae: 32 fold
- Imax, NL20 cell line, 24 hrs [3]: 64.3 ± 7.0%
- Imax, NL20 cell line, 48 hrs [3]: 53.3 ± 9.1%
- Imax, NL20 cell line, 72 hrs [3]: 46.8 ± 4.0%
- IC50, NL20 cell line, 24 hrs ([3]; 24 h): >250 µg/mL
- IC50, NL20 cell line, 48 hrs ([3]; 48 h): >250 µg/mL
- IC50, NL20 cell line, 72 hrs ([3]; 72 h): 241.5 ± 9.0 µg/mL
- IC50, A549 cell line, 24 hrs ([4]; 24 h): > 250 µg/mL
- IC50, A549 cell line, 48 hrs ([4]; 48 h): 197.7 µg/mL
- IC50, A549 cell line, 72 hrs ([4]; 72 h): 165.0 µg/mL

Substance: GLFDIWKWWRWRR-NH2 [DM3]
- MIC, A. baumanii ATCC 15308 ([1]; ATCC 15308): 15.63 µg/mL
- MIC, PRSP [2]: 15.63 to 62.5 µg/mL
- EP %, PRSP [2]: (100.0) %
- Imax, NL20 cell line, 24 hrs [3]: 13.3 ± 2.1%
- Imax, NL20 cell line, 48 hrs [3]: 24.0 ± 7.6%
- Imax, NL20 cell line, 72 hrs [3]: 12.4 ± 4.5%
- IC50, NL20 cell line, 24 hrs ([3]; 24 h): 68.5 ± 11.0 µg/mL
- IC50, NL20 cell line, 48 hrs ([3]; 48 h): 91.5 ± 7.6 µg/mL
- IC50, NL20 cell line, 72 hrs ([3]; 72 h): 112.2 ± 8.8 µg/mL
- IC50, A549 cell line, 24 hrs ([4]; 24 h): 56.0 ± 9.3 µg/mL
- IC50, A549 cell line, 48 hrs ([4]; 48 h): 80.0 ± 1.7 µg/mL
- IC50, A549 cell line, 72 hrs ([4]; 72 h): 96.2 ± 4.4 µg/mL

Substance: GLFDKWAWWRWRR-NH2 [DM1]
- MIC, A. baumanii ATCC 15308 [1, 5]: 62.5 µg/mL
- MIC, PRSP [2]: 31.3 to 125 µg/mL
- EP %, PRSP [2]: (100.0) %
- IC50 against NL20 cell line, over all time points [3, 12]: > 220 µg/mL
- IC50, NL20 cell line, 24 hrs [3, 6]: 221.8 ± 7.8 µg/mL
- IC50, NL20 cell line, 48 hrs [3, 7]: 235.7 ± 12.9 µg/mL
- IC50, NL20 cell line, 72 hrs [3, 8]: 242.2 ± 7.3 µg/mL
- Imax, NL20 cell line, 24 hrs [3, 9]: 35.3 ± 6.6%
- Imax, NL20 cell line, 48 hrs [3, 10]: 42.2 ± 8.6%
- Imax, NL20 cell line, 72 hrs [3, 11]: 45.9 ± 4.3%
- IC50 against A549 cell line, over all time points [4, 12]: ≥ 195.0 µg/mL
- IC50, A549 cell line, 24 hrs [4, 6]: 215.3 ± 19.7 µg/mL
- IC50, A549 cell line, 48 hrs [4, 7]: 195.0 ± 25.2 µg/mL
- IC50, A549 cell line, 72 hrs [4, 8]: >250 µg/mL
- Imax, A549 cell line, 24 hrs [4, 9]: 38.6 ± 6.2%
- Imax, A549 cell line, 48 hrs [4, 10]: 39.8 ± 7.7%
- Imax, A549 cell line, 72 hrs [4, 11]: 66.2 ± 7.2%

Substance: GLFDIWKKLRWRR-NH2 [DM5]
- MIC, A. baumanii ATCC 15308 ([1]; ATCC 15308): 31.3 µg/mL
- MIC, PRSP [2]: 31.3 to 125 µg/mL
- EP %, PRSP [2]: (100.0) %
- Imax, NL20 cell line, 24 hrs [3]: 7.3 ± 2.4%
- Imax, NL20 cell line, 48 hrs [3]: 8.3 ± 4.2%
- Imax, NL20 cell line, 72 hrs [3]: 9.7 ± 5.4%
- IC50, NL20 cell line, 24 hrs ([3]; 24 h): 179.2 ± 3.8 µg/mL
- IC50 of NL20 cells higher than A549 cells by, 24 hrs ([3]; 24 h): 82.2 µg/mL
- IC50, NL20 cell line, 48 hrs ([3]; 48 h): 188.2 ± 4.9 µg/mL
- IC50 of NL20 cells higher than A549 cells by, 48 hrs ([3]; 48 h): 81.9 µg/mL
- IC50, NL20 cell line, 72 hrs ([3]; 72 h): 191.7 ± 3.5 µg/mL
- IC50 of NL20 cells higher than A549 cells by, 72 hrs ([3]; 72 h): 90.0 µg/mL
- IC50, A549 cell line, 24 hrs ([4]; 24 h): 97.0 ± 9.8 µg/mL
- IC50, A549 cell line, 48 hrs ([4]; 48 h): 106.3 ± 15.7 µg/mL
- IC50, A549 cell line, 72 hrs ([4]; 72 h): 101.7 ± 9.5 µg/mL
